Measurements from US7605135B2 (priority 2003, dated 2009).
Read-outs that look alike come from different tables or passages of the source.

Experiments:
SARS-CoV = settings: fRhK4 cell line; for EC50 (μg/ml) at 48 hrs / EC50 (μg/ml) at 72 hrs: 10 strains of SARS-CoV, inhibition of cytopathic effect to 50% of control
HIV-1 = settings: cited from earlier work
[1] = in vivo, cited from earlier work
[2] = human, in vivo; cited from earlier work

## baicalin
SARS-CoV
  EC50 (μg/ml) at 48 hrs: 12.5 to 25 µg/mL
  EC50 (μg/ml) at 72 hrs: 25 to 50 µg/mL
SARS-CoV; listed as baicalin
  EC50 (μg/ml) at 48 hrs: 12.5 to 25 µg/mL
  EC50 (μg/ml) at 72 hrs: 25 to 50 µg/mL
SARS-CoV; selectivity index
  SI = CC50/EC50 at 48 hrs: >8
fRhK4 cell line
  CC50: >100 µg/mL
HIV-1
  Antiviral effect: Inhibition of HIV-1 [Kitamura K et al., “Baicalin: an inhibitor of HIV-1
[1]; human, po
  Serum level (after oral administration) Cmax: Cmax = 60 ng/mL (189.8 mg/person, in human). The amount (i.e., 189.8 mg/
[1]; human
  Half life (in humans): ~3 hrs in humans Muto R et al., “The chemical structure of new substance
[1]; po
  Serum concentration after oral dose: 470 ng/mL
[2]
  Serum level (after intravenous administration) Cmax: 74
